Reference: patent US10351915B2 (Berg LLC, priority 2009, dated 2019)
Read-outs that look alike come from different tables or passages of the source.

Key:
[1] = test system: HepG2 (liver cancer) cells; test: PCR Diabetes Array; type: cell-based; conditions: 100 μM Q10, 48 hours
Procedure: The treatment was initiated on 1×10^5 cells per well, following the procedure utilized in the PaCa2 cells (above, Examples 9-11). However, the total amount of RNA that was extracted from these samples was lower than expected. Reverse transcription is normally done using 1 μg total RNA (determined by measurement at 260 nm). The maximum volume that can be used per reverse transcription is 8 μl.

[2] = test system: Pyruvate Dehydrogenase beta (PDH-E1); test: Western blot, Pyruvate Dehydrogenase Beta levels; type: cell-based, human
Procedure: The pyruvate kinase blots were stripped by incubating for 30 minutes with methanol, followed by two 10 minute washes with TBS-T, then 30 minutes of incubation with Stripping buffer at 50 deg C., and followed by two washes with 100 ml or more of TBS-T for 30′ each. The 2 blots were scanned in laser scanner to check for complete stripping. After making sure stripping of the antibody and the ECF reagent has worked, the blots were activated with methanol for 5 seconds, washed with water for 5 minutes, and TBST for 15 minutes. The blots are blocked for 1 hour with 5% blocking reagent in TBS-T at room temperature and then washed 3 times with TBS-T (1×-15′; 2×5′ each) and probed with the antibody for Pyruvate Dehydrogenase in 5% BSA (ABNOVA catalog # H00005162-M03) at 1:500 dilutions) overnight at 4 deg C. with shaking. After the overnight incubation with primary antibody for Pyruvate Dehydrogenase, the membranes were washed 3 times with TBS-T (1×-15′; 2×5′ each) and probed with the secondary antibody (antimouse; 1:10,000 dilution) for 1 h on the orbital tilting shaker at room temperature. […]
The levels of LDH and PDH were determined by probing the blots successively with primary antibodies for LDH and PDH, essentially as described above. […]

[3] = test system: SKBr3; test: Nexin assay for apoptosis (flow cytometry); type: cell-based, human; conditions: 50 μM or 100 μM Q10, 24 hours
Source text: The 7AAD dye will enter into cells with permeabilized cell membranes; primarily those cells that are in late apoptosis. Annexin-V-PE is a dye that binds to Phosphotidyl serine, which is exposed on the outer surface of the plasma membrane in early apoptotic cells. The Nexin reagent thus can be used to differentiate between different populations of apoptotic cells in a flow cytometer.

[4] = one study with rats; cited from earlier work
[5] = test system: PaCa-2 pancreatic cancer cells; test: Oxygen consumption rate (OCR), SeaHorse XF analyzer; type: cell-based; conditions: absence and presence of stressors
Source text: (§1) (SeaHorse Biosciences Inc, North Billerica, Mass.).
(§2) In contrast, cancer cells (e.g., MCF-7, PaCa-2) are inherently primed to culture at higher levels of glucose compared to normal cells due to their glycolytic phenotype for maintenance in culture.

[6] = test system: MCF-7 breast cancer cells; test: as above; type: cell-based; conditions: absence and presence of stressors
Source text: as §1, §2

[7] = test system: PaCa-2 cells; test: Extracellular acidification rate (ECAR), SeaHorse XF analyzer; type: cell-based; conditions: normoxia, high glucose
Procedure: as §1
In contrast to normal cells, cancer cells are phenotypically primed to use high glucose for ATP generation (enhanced glycolysis) resulting in higher ECAR (Table 129, ECAR for untreated normoxia 17 mM) at 21 mpH/min. […] The associated decrease in OCR in these cells was likely associated with increased efficiency of the mitochondrial OXPHOS.

[8] = test system: Bcl2; test: Bcl2 level after CoQ-10 in the presence of VEGF; type: cell-based; conditions: normal fibroblast, co-administration with VEGF
[9] = test system: pancreatic cancer; conditions: intravenous

Question: For `COC1=C(OC)C(=O)C(C/C=C(\C)CC/C=C(\C)CC/C=C(\C)CC/C=C(\C)CC/C=C(\C)CC/C=C(\C)CC/C=C(\C)CC/C=C(\C)CC/C=C(\C)CCC=C(C)C)=C(C)C1=O` [Q10, Coenzyme Q10], which “PPARGCIA mRNA” value [1] is on record?
Answer: normalized or were slightly upregulated

Question: And the “Pyruvate Dehydrogenase Beta Normalized Volume (48 h)” value ([2]; HepG2, 5g glucose, 48 h, amount 50)?
Answer: 123

Question: And the “Pyruvate Dehydrogenase Beta Normalized Volume (24 h)” value ([2]; HepG2, 22G glucose, 24 h, amount 100)?
Answer: 340

Question: And the “early and late apoptosis” value [3]?
Answer: did not show any significant increases of early and late apoptosis

Question: What about the “orally-administered CoQ10 absorbed” value [4] of the same compound?
Answer: 2-3%

Question: What about the OCR values [5] of the same compound?
Answer: consistent reduction in OCR values

Question: What about the OCR values [6] of the same compound?
Answer: consistent reduction in OCR values

Question: What about the ECAR rates [7] of the same compound?
Answer: significant decrease in ECAR rates

Question: What about the “levels of Bcl2” value [8] of the same compound?
Answer: no effect on the levels of Bcl2

Question: What about the animals alive ([9]; 5 mg/kg (Group D), after 28 days) of the same compound?
Answer: most of the animals

Question: And the animals alive ([9]; 10 mg/kg (Group E), after 28 days)?
Answer: most of the animals

Question: What about the animals alive ([9]; 25 mg/kg (Group F), after 28 days) of the same compound?
Answer: most of the animals

Question: What about the animals alive ([9]; 50 mg/kg (Group G), at 28 days) of the same compound?
Answer: all of the animals
